Measured values reported in US9783535B2 (priority 2012, dated 2017).

How the values were obtained:
[1] = molecular target: a3b4 nAChRs (Homo sapiens, UniProt P30926+P32297); assay: Relative potency at a3b4 nAChRs, epibatidine-induced calcium response; assay type: cell-based
Description: The HEK293 (a3b4, a4b2 and a7) and SH-SY5Y cell lines (a3b4) expressing nAChRs are used. Validated assays optimized with respect to sensitivity, dynamic range, signal intensity and stability for chemical probe validation and SAR refinement are used.
Nicotinic functional assays are performed using the Molecular Devices FLIPR® Calcium 5 Assay Kit. HEK293 cells overexpressing α3β4, α4β2 or α7 (50,000 cells per well in 100 μl growth media) and are plated in clear bottom black walled 96-well microplates and incubated for 24-48 hours at 37° C., 5% CO2 until a 80-90% confluent monolayer is formed. On the day of the assay, 100 μl of Calcium 5 Dye is added to each well. Following addition of dye, cells are incubated at 25° C. for 60 minutes. Following dye loading, 50 μl of a 5× solution of reference or test compound of appropriate concentration range (0.01-30 μM), prepared in 20 mM HEPES pH 7.4 in HBSS, is added to each well. Plates are then transferred to the Molecular Devices Flexstation® which transfers 50 μL of a 5× solution (500 nM) of epibatine to each well to initiate the Ca+2 flux. Additional wells (in quadruplicate) are prepared with no added test or reference ligand for measurement of 100% flux. The RFU (relative fluorescence units) in the presence of the test or reference compounds is then expressed on the percent scale. The percent inhibition of epibatidine induced Ca^+2 flux is calculated as follows: % inhibition=100%−% RFU (relative fluorescence units). The IC50 values for reference and test compounds are obtained by fitting normalized RFU data using Graphpad Prism software.

[2] = CNS penetration across the blood brain barrier; parameters: species or system mice; settings: mouse, in vivo
Description: Mice are dosed with compounds. Brain to blood ratios are determined by HPLC and LC/MS/MS analysis following oral administration of the test compounds in mice.

[3] = molecular target: T1, kappa opioid receptor (kOR) (Homo sapiens, UniProt P41145); assay: Kappa opioid receptor binding; settings: read-out: Affinity at kappa opioid receptor
T1 construct: expressed in transfected cells; host or cells: CHO or HEK293 (membranes)
T1 sequence (P41145 whole entry): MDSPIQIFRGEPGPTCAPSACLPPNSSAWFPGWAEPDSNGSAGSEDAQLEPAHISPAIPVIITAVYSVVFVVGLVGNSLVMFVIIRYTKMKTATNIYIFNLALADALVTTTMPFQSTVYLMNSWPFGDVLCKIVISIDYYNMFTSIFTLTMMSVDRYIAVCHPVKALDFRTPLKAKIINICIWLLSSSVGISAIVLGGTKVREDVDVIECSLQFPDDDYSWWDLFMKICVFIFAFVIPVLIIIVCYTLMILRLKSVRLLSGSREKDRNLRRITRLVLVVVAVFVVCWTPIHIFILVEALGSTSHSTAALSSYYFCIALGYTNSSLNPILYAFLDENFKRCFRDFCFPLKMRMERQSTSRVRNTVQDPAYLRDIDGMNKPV
Description: Established radioligand binding methods are used to evaluate the ability of the compounds to block reuptake of scrotonin and dopamine in membrane preparations of synaptosomes. Equilibrium binding affinity values is determined for each compound at opioid receptors (μ and κ subtypes) and biogenic amine transporters (DAT and SERT). Where possible, binding experiments utilize membranes derived from CHO or HEK293 cells engineered to overexpress the human form of the receptor or transporter of interest. Radiolabeling of opioid receptors, and biogenic amine transporters utilizes conventional radioligands, buffers and incubation conditions according to published assays.
Test compounds, reference compounds and the radioligand (Kd value) are added to binding buffer. Assays are run with test or reference compound over a range of concentration (0.0001-10 uM) in triplicate using a 96-well sample plate containing radioligands specific for the target receptor or transporter. […] Bound radioactivity is counted in a Microbeta scintillation counter. Total bound radioactivity is estimated from triplicate wells containing no test or reference compound, together with nonspecific binding and filter blanks. The average bound radioactivity in the presence of the test compounds is expressed % inhibition=100%−% radioactivity bound. […]

[4] = test system: panel of over 50 receptors, transporters, ion channels, second messengers, growth factor receptors and enzymes; assay: Binding panel at physiologically relevant concentrations
Text: The association between cigarette smoking and the presence and severity of suicidal behavior across major psychiatric disorders may be related to lower brain serotonin function in smokers with depression).

Chain of a3b4 nAChRs (P32297 32-505): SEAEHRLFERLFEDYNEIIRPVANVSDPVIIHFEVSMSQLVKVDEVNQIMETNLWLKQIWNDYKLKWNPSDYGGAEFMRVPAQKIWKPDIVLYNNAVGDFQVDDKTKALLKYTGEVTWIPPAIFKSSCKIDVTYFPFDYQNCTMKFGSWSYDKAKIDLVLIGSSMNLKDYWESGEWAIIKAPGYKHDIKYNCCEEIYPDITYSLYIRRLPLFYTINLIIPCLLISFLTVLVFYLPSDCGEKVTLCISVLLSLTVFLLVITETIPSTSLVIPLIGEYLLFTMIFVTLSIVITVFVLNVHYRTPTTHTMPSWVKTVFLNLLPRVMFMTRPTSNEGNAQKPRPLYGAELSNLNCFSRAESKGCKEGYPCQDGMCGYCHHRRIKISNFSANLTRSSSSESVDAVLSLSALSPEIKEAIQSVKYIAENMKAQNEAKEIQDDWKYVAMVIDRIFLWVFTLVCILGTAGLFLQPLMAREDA
Chain of a3b4 nAChRs (P30926 22-498): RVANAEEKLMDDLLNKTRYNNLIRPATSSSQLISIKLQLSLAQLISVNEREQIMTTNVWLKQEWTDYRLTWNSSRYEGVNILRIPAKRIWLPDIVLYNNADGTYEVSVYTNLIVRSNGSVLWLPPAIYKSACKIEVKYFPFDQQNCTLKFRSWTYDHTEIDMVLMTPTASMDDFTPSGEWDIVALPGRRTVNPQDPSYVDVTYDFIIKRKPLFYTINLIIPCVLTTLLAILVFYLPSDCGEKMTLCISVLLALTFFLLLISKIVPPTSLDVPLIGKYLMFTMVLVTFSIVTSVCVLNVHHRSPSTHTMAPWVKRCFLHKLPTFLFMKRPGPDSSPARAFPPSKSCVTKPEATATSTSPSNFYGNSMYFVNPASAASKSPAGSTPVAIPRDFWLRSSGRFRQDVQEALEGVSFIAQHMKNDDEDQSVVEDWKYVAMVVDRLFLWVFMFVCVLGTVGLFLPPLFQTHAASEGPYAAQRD

Ibogaine
Potency as inhibitor of the epibatidine-induced calcium response compared with 18-MC and noribogaine ([1]; a3b4 nAChRs): more potent inhibitors than 18-MC (18-methoxycoronaridine) and noribogaine

COCC[C@H]1CC2CN3CCc4c([nH]c5ccccc45)[C@](C(=O)OC)(C2)[C@H]13 [Compound 18-MC, 18-methoxycoronaridine]
IC50 of the reference 18-MC behind the ratio ([1]; a3b4 nAChRs, bracketed value in Table 4): 4000 nM | Ratio from 18-MC ([1]; relative potency at a3b4 nAChRs, 18-MC = 1): 1 | Crossing of the BBB and brain concentration [2]: cross the BBB and reach micromolar concentrations in brain

CC[C@H]1CC2C[C@H]3c4[nH]c5ccc(O)cc5c4CCN(C2)C13 [Noribogaine, 12-hydroxyibogamine]
Ki [3]: 1000 nM | Targets bound in the panel [4]: only bound to SERT, DAT, mu and kappa opioid receptors | Crossing of the BBB and brain concentration [2]: cross the BBB and reach micromolar concentrations in brain
